Measured values reported in US12612410B2 (CHILDREN'S HOSPITAL MEDICAL CENTER, priority 2020, dated 2026).

Assays:
[1] = molecular target: T1, IRAK1 (Homo sapiens, UniProt P51617); test: RBC HotSpot Kinase Assay, IRAK1; type: biochemical; settings: isolated kinase, 33P-ATP
T1 construct: purchased Reaction Biology (RBC), HotSpot kinase assay
How it was run: (§1)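 Functional radiometric activity assay: kinase + substrate + cofactors in Hepes pH 7.5/MgCl2/EGTA/Brij35/BSA/Na3VO4/DTT, 1% DMSO; cmpd preincubation 20 min RT; 33P-ATP start, 2 h RT; P81 filter-binding readout.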

[2] = molecular target: T2, FLT3 (Homo sapiens, UniProt P36888); test: RBC HotSpot Kinase Assay, FLT3; type: biochemical; design: purchased Reaction Biology (RBC), HotSpot kinase assay; settings: isolated kinase, 33P-ATP
T2 sequence (P36888 27-993): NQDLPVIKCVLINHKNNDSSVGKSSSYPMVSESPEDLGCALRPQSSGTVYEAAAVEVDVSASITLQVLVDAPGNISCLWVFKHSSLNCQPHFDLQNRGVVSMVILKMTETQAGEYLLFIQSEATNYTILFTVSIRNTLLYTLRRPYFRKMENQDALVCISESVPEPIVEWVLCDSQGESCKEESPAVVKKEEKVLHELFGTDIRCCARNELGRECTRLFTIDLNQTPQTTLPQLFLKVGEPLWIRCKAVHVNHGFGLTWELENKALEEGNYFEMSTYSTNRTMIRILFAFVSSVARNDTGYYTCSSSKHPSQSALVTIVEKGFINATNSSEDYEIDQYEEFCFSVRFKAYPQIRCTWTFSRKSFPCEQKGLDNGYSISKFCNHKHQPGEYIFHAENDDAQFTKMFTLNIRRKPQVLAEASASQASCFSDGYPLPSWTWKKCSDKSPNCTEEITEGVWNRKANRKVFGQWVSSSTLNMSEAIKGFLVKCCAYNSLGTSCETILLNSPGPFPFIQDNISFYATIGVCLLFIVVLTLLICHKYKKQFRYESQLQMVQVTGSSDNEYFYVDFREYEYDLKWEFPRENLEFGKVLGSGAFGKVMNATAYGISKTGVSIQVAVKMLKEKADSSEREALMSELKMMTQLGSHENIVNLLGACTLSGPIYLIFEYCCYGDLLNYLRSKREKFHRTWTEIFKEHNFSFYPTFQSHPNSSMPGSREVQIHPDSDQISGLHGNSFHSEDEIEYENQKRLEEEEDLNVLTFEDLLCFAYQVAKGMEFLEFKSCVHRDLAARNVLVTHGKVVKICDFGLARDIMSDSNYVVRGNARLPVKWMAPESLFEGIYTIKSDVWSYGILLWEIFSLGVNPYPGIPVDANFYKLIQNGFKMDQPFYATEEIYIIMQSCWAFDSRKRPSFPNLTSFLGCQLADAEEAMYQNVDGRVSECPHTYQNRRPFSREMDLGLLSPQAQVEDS
How it was run: as §1

[3] = tested on: MOLM14 D835Y cells; test: MOLM14 D835Y cell viability assay (Cell Titer Glo); type: cell-based
Experimental: (§2) Both cell lines have activated FLT3 receptors, each of which carry additional resistance mutations in the kinase domain (D835Y and F691L, respectively).
(§3) MOLM14 D835Y and MOLM14 F691L cells were grown in RPMI-1640 media supplemented with 20% fetal bovine serum (FBS). For viability/cytotoxicity assessments, cells were seeded into 1536-well white polystyrene tissue culture-treated Greiner plates using a Multidrop Combi dispenser (ThermoFisher), in final volume 5 μL of growth media per well, at a density of 1000 cells per well. After cell addition, 23 nL of test compound were transferred into individual wells (22 doses tested for each test compound, with a 1:2 dilution series starting at 10 μM) via a 1536 pin-tool. Bortezomib (final concentration 2.3 μM) was used as a positive control for cell cytotoxicity. Plates were incubated for 48 hours at standard incubator conditions covered by a stainless steel gasketed lid to prevent evaporation. 48 hours post compound addition, 3 μL of Cell Titer Glo (Promega) were added to each well and plates were incubated at room temperature for 15 minutes with the stainless-steel lid in place. Luminescence readings were taken using a Viewlux imager (PerkinElmer) with a 2 second exposure time per plate.

[4] = molecular target: T3, IRAK4 (Homo sapiens, UniProt Q9NWZ3); test: RBC HotSpot Kinase Assay, IRAK4; type: biochemical; design: purchased Reaction Biology (RBC), HotSpot kinase assay; settings: isolated kinase, 33P-ATP
T3 sequence (Q9NWZ3 1-460): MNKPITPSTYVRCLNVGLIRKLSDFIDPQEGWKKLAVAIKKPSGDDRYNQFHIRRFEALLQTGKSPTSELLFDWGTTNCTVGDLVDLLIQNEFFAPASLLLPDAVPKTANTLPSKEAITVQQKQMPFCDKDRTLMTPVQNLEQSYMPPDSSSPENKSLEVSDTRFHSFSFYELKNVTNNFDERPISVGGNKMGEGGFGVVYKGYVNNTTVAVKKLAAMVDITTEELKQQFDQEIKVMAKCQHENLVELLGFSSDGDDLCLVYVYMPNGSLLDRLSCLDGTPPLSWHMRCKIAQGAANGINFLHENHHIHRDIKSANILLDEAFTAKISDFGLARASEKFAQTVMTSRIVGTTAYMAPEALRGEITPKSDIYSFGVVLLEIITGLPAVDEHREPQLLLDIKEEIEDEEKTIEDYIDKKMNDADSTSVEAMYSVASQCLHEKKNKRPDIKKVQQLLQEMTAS
How it was run: as §1

[5] = tested on: MOLM14 F691L cells; test: MOLM14 F691L cell viability assay (Cell Titer Glo); type: cell-based
Experimental: as §2, §3

T1 sequence (P51617 whole entry): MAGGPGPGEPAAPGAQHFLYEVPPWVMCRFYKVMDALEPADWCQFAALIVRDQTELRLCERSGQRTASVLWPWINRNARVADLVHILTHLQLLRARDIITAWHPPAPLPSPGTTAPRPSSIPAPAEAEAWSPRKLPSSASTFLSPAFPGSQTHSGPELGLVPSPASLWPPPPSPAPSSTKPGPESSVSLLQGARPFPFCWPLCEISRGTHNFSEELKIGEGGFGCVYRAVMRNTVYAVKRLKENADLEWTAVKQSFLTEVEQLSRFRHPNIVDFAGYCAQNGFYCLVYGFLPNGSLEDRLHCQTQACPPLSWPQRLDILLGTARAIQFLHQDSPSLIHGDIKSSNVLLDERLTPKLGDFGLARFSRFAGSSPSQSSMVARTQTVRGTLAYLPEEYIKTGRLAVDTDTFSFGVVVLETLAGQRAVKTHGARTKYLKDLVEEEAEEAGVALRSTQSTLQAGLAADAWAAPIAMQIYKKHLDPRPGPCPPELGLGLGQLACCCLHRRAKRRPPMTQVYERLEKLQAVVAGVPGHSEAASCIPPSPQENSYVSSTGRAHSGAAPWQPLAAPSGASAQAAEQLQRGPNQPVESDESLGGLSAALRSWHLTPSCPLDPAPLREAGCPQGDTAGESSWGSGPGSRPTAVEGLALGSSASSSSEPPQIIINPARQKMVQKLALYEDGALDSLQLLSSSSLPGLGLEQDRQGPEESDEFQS

| SMILES | IC50 [1] [nM] | IC50 [2] [nM] | IC50 ([3]; Homo sapiens, MOLM-14, 48 h) [nM] | IC50 [4] [nM] | IC50 ([5]; Homo sapiens, MOLM-14, 48 h) [nM] | IC50 ([3]; 48 hours) [nM] | IC50 ([5]; 48 hours) [nM] |
| --- | --- | --- | --- | --- | --- | --- | --- |
| CC(O)(c1cn2c(-c3cc(F)cc(N[C@H]4CNC[C@@H]4F)n3)cnc2cn1)C(F)(F)F (single isomer, unassigned) [Compound 84] | 114 | 0.6 |  | 2 |  | 183 | 410 |
| CC(O)(c1cn2c(-c3cc(F)cc(N[C@@H]4CCCNC4)n3)cnc2cn1)C(F)(F)F (single isomer, unassigned) [Compound 85] | 106 | 0.6 | 154 | 54 | 290 |  |  |
| CC(O)(c1cn2c(-c3nc(N[C@H]4CNC[C@@H]4F)c(F)cc3F)cnc2cn1)C(F)(F)F (single isomer, unassigned) [Compound 93] | 8 | 1 |  | < 0.5 |  | 73 | 969 |
| CC(C)(O)c1cn2c(-c3cccc(N[C@H]4CNC[C@@H]4F)n3)cnc2cn1 [Compound 28, 2-(3-(6-(((3S,4S)-4-fluoropyrrolidin-3-yl)amino)pyridin-2-yl)imidazo[1,2-a]pyrazin-6-yl)propan-2-ol] | 220 | < 0.5 | 94 | 0.7 | 502 |  |  |
| CC(O)(c1cn2c(-c3nc(N[C@H]4CNC[C@@H]4F)c(F)cc3F)cnc2cn1)C(F)(F)F (single isomer, unassigned) [Compound 91] | 40 | 3 |  | 2 | 1540 | 195 |  |
| CC(O)(c1cn2c(-c3cc(F)cc(N[C@@H]4CCCNC4)n3)cnc2cn1)C(F)(F)F (single isomer, unassigned) [Compound 87] | 46 | 0.7 |  | 5 |  | 116 | 309 |
| FC(F)(F)C1(c2cn3c(-c4cccc(N[C@@H]5CCCNC5)n4)cnc3cn2)CC1 [Compound 9, (R)-N-(piperidin-3-yl)-6-(6-(1-(trifluoromethyl)cyclopropyl)imidazo[1,2-a]pyrazin-3-yl)pyridin-2-amine] | 126 | < 0.5 | 18 | 7 | 106 |  |  |
| FC(F)c1cn2c(-c3cccc(N[C@H]4CNC[C@@H]4C(F)(F)F)n3)cnc2cn1 [Compound 19, 6-(6-(difluoromethyl)imidazo[1,2-a]pyrazin-3-yl)-N-((3R,4S)-4-(trifluoromethyl)pyrrolidin-3-yl)pyridin-2-amine] | 32 | < 0.5 | 2 | < 0.5 | 19 |  |  |
| CC(O)(c1cn2c(-c3cc(F)cc(N[C@H]4CNC[C@@H]4F)n3)cnc2cn1)C(F)(F)F (single isomer, unassigned) [Compound 83] | 329 | < 0.5 | 344 | 28 | 486 |  |  |
| CC(O)(c1cn2c(-c3nc(N[C@H]4CNCC[C@@H]4F)c(F)cc3F)cnc2cn1)C(F)(F)F (single isomer, unassigned) [Compound 92] | 11 | 2 | 87 | 2 | 969 |  |  |

Next, values leading:

| IC50 [1] [nM] | IC50 [2] [nM] | IC50 ([3]; Homo sapiens, MOLM-14, 48 h) [nM] | IC50 [4] [nM] | IC50 ([5]; Homo sapiens, MOLM-14, 48 h) [nM] | IC50 ([3]; 48 hours) [nM] | IC50 ([5]; 48 hours) [nM] | SMILES |
| --- | --- | --- | --- | --- | --- | --- | --- |
| 438 | < 0.5 | 27 | 10 | 168 |  |  | CC(C)Oc1cn2c(-c3cccc(N[C@@H]4CCCNC4)n3)cnc2cn1 [Compound 131, (R)-6-(6-isopropoxyimidazo[1,2-a]pyrazin-3-yl)-N-(piperidin-3-yl)pyridin-2-amine] |
| 8 | 1 |  | 0.8 |  | 77 | 864 | CC(O)(c1cn2c(-c3nc(N[C@H]4CNCC[C@@H]4F)c(F)cc3F)cnc2cn1)C(F)(F)F (single isomer, unassigned) [Compound 94] |
| 9940 | 0.7 | 172 | 1330 | 579 |  |  | O=C1CCCCN1c1cn2c(-c3cccc(N[C@@H]4CCCNC4)n3)cnc2cn1 [Compound 113, (R)-1-(3-(6-(piperidin-3-ylamino)pyridin-2-yl)imidazo[1,2-a]pyrazin-6-yl)piperidin-2-one] |
| 9400 | < 0.5 | 92 | 150 | 273 |  |  | O=C1CCCCN1c1cn2c(-c3cccc(N[C@H]4CNCC[C@@H]4F)n3)cnc2cn1 [Compound 115, 1-(3-(6-(((3S,4S)-4-fluoropiperidin-3-yl)amino)pyridin-2-yl)imidazo[1,2-a]pyrazin-6-yl)piperidin-2-one] |
| 234 | < 0.5 | 24 | 15 | 86 |  |  | O=C1CCCN1c1cn2c(-c3cccc(N[C@@H]4CCCNC4)n3)cnc2cn1 [Compound 120, 1-[3-[6-[[(3R)-3-piperidyl]amino]-2-pyridyl]imidazo[1,2-a]pyrazin-6-yl]pyrrolidin-2-one] |
| > 10000 | 1 | 460 | 132 | 4860 |  |  | O=C1CCCCN1c1cn2c(-c3cccc(N[C@H]4CNC[C@@H]4F)n3)cnc2cn1 [Compound 114, 1-(3-(6-(((3S,4S)-4-fluoropyrrolidin-3-yl)amino)pyridin-2-yl)imidazo[1,2-a]pyrazin-6-yl)piperidin-2-one] |
| 475 | < 0.5 | 334 | 31 | 770 |  |  | CC(C)(C)c1cn2c(-c3cc(F)cc(N[C@H]4CNC[C@@H]4F)n3)cnc2cn1 [Compound 122, 6-(6-(tert-butyl)imidazo[1,2-a]pyrazin-3-yl)-4-fluoro-N-((3S,4S)-4-fluoropyrrolidin-3-yl)pyridin-2-amine] |
| 108 | < 0.5 | 58 | 0.6 | 326 |  |  | CC(C)(C)c1cn2c(-c3cccc(N[C@H]4CNC[C@@H]4F)n3)cnc2cn1 [Compound 128, 6-(6-(tert-butyl)imidazo[1,2-a]pyrazin-3-yl)-N-((3S,4S)-4-fluoropyrrolidin-3-yl)pyridin-2-amine] |
| 52 | 0.7 | 137 | 4 | 1930 |  |  | O=C1CCCN1c1cn2c(-c3nc(N[C@H]4CNC[C@@H]4F)c(F)cc3F)cnc2cn1 [Compound 109, 1-(3-(3,5-difluoro-6-(((3S,4S)-4-fluoropyrrolidin-3-yl)amino)pyridin-2-yl)imidazo[1,2-a]pyrazin-6-yl)pyrrolidin-2-one] |
